Laboratory results from ChEMBL document CHEMBL1125522, “2,3-Epoxy-10-aza-10,11-dihydrosqualene, a high-energy intermediate analogue inhibitor of 2,3-oxidosqualene cyclase” (J Med Chem, 1992).

Key:
[1] = biological target: T1, Lanosterol synthase (Rattus norvegicus, UniProt P48450); test: Compound was evaluated for the inhibition of microsomal 2,3-oxidosqualene-lanosterol cyclase in rat liver microsomes; parameters: species or system Microsome; conditions: read-out: I50
T1 sequence (P48450 whole entry): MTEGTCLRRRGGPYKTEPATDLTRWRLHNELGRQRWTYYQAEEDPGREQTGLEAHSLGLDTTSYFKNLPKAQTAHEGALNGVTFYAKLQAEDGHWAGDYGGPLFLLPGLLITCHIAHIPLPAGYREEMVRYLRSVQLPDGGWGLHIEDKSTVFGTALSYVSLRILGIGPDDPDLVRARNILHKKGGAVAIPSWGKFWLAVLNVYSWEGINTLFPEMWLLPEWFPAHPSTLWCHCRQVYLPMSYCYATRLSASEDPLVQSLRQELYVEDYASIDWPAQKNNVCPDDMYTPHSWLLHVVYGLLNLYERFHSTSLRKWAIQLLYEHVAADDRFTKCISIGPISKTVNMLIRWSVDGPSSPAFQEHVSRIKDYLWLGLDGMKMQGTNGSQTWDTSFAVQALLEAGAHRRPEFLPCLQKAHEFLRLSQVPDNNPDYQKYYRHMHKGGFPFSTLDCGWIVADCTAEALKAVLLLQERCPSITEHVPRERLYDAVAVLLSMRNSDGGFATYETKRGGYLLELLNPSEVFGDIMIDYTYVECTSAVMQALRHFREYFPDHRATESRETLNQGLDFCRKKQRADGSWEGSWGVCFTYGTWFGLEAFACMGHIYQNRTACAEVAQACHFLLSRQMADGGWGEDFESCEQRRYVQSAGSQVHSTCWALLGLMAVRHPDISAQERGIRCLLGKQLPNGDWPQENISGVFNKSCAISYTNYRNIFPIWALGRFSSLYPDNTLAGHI

[2] = biological target: T1, Lanosterol synthase; test: Compound was evaluated for the inhibition of microsomal 2,3-oxidosqualene cyclase in rat liver microsomes; parameters: species or system Microsome; conditions: read-out: I50

| IC50 [1] [µM] | IC50 [2] [µM] | Structure (SMILES) |
| --- | --- | --- |
| 4.8 | – | CC(C)=CCC/C(C)=C/CC/C(C)=C/CCCN(C)CC/C=C(\C)CCC1OC1(C)C (configuration not stated) |
| – | > 20 | CC(C)=CCC/C(C)=C/CCC(C)=CCCCN(C)CC/C=C(/C)CCC1OC1(C)C (configuration not stated) |
